In ChEMBL document CHEMBL1201862, “PubChem BioAssay data set” (2004):
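Interpolation was linear, between the two tested concentrations surrounding the appropriate level; five concentrations were tested over 48 hours in 96-well plates. GI50 is the concentration that inhibits growth by half.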 Calls of active or inactive are those of the source. Cut-off read from the data, not from the text of the source: active = GI50 up to about 1.1 µM and inactive = higher.

Key:
Experiment in all cases: NCI tumour cell line growth inhibition, 48 h
SNB-75 = tested on: SNB-75
HCC 2998 = tested on: HCC 2998
IGROV-1 = tested on: IGROV-1
PC-3 = tested on: PC-3
M19-MEL = tested on: M19-MEL
HCT-15 = tested on: HCT-15
MCF7 = tested on: MCF7
SK-OV-3 = tested on: SK-OV-3
K562 = tested on: K562
OVCAR-4 = tested on: OVCAR-4
RPMI-8226 = tested on: RPMI-8226
MDA-MB-435 = tested on: MDA-MB-435
Hs-578T = tested on: Hs-578T
SF-268 = tested on: SF-268
EKVX = tested on: EKVX
HT-29 = tested on: HT-29
HOP-92 = tested on: HOP-92
A549 = tested on: A549
SR = tested on: SR
DMS-114 = tested on: DMS-114
SK-MEL-2 = tested on: SK-MEL-2
SF-295 = tested on: SF-295
CCRF-CEM = tested on: CCRF-CEM
DU-145 = tested on: DU-145
HCT-116 = tested on: HCT-116
Malme-3M = tested on: Malme-3M
SN12C = tested on: SN12C
SK-MEL-28 = tested on: SK-MEL-28
SNB-78 = tested on: SNB-78
NCI-H522 = tested on: NCI-H522
786-0 = tested on: 786-0
OVCAR-5 = tested on: OVCAR-5
UACC-62 = tested on: UACC-62
OVCAR-8 = tested on: OVCAR-8
KM12 = tested on: KM12
HL-60 = tested on: HL-60
NCI-H226 = tested on: NCI-H226
UACC-257 = tested on: UACC-257
CAKI-1 = tested on: CAKI-1
LOX IMVI = tested on: LOX IMVI
NCI-H460 = tested on: NCI-H460
DMS-273 = tested on: DMS-273
HOP-62 = tested on: HOP-62
DLD-1 = tested on: DLD-1
OVCAR-3 = tested on: OVCAR-3
NCI-H23 = tested on: NCI-H23
SF-539 = tested on: SF-539
RXF 393 = tested on: RXF 393
M14 = tested on: M14
SK-MEL-5 = tested on: SK-MEL-5
MOLT-4 = tested on: MOLT-4
MDA-MB-231 = tested on: MDA-MB-231
A498 = tested on: A498
SNB-19 = tested on: SNB-19
COLO 205 = tested on: COLO 205
UO-31 = tested on: UO-31
NCI/ADR-RES = tested on: NCI/ADR-RES
ACHN = tested on: ACHN
T47D = tested on: T47D
BT-549 = tested on: BT-549
MDA-N = tested on: MDA-N
SW-620 = tested on: SW-620
LXFL 529 = tested on: LXFL 529
U-251 = tested on: U-251
HOP-18 = tested on: HOP-18
TK-10 = tested on: TK-10

Cc1ccc(S(=O)(=O)C2=c3ncccc3=C3C(=O)c4ccccc4C(=O)C32)cc1 (stereo not given)
GI50 (SNB-75): 52.6 µM (inactive) | GI50 (HCC 2998): > 10 µM (inactive) | GI50 (IGROV-1): 13.9 µM (inactive) | GI50 (PC-3): 61.4 µM (inactive) | GI50 (M19-MEL): < 0.01 µM (active) | GI50 (HCT-15): > 10 µM | GI50 (MCF7): > 71.9 µM (inactive) | GI50 (SK-OV-3): 38.2 µM (inactive) | GI50 (K562): > 95.9 µM (inactive) | GI50 (OVCAR-4): 15.8 µM (inactive) | GI50 (RPMI-8226): > 100 µM (inactive) | GI50 (MDA-MB-435): > 100 µM (inactive) | GI50 (Hs-578T): 22.6 µM (inactive) | GI50 (SF-268): 46.7 µM (inactive) | GI50 (EKVX): 69 µM (inactive) | GI50 (HT-29): > 100 µM (inactive) | GI50 (HOP-92): 25.4 µM (inactive) | GI50 (A549): > 100 µM (inactive) | GI50 (SR): > 100 µM (inactive) | GI50 (DMS-114): 65 µM (inactive) | GI50 (SK-MEL-2): 3.13 µM (inactive) | GI50 (SF-295): 43.1 µM (inactive) | GI50 (CCRF-CEM): > 95.1 µM (inactive) | GI50 (DU-145): > 100 µM (inactive) | GI50 (HCT-116): 71.6 µM (inactive) | GI50 (Malme-3M): 53.7 µM (inactive) | GI50 (SN12C): > 100 µM (inactive) | GI50 (SK-MEL-28): > 100 µM (inactive) | GI50 (SNB-78): > 100 µM (inactive) | GI50 (NCI-H522): 4.38 µM (inactive) | GI50 (786-0): 28.4 µM (inactive) | GI50 (OVCAR-5): > 10 µM (inactive) | GI50 (UACC-62): 23 µM (inactive) | GI50 (OVCAR-8): 39.4 µM (inactive) | GI50 (KM12): > 9.95 µM (inactive) | GI50 (HL-60): 99.5 µM (inactive) | GI50 (NCI-H226): > 29.9 µM (inactive) | GI50 (UACC-257): 66.7 µM (inactive) | GI50 (CAKI-1): 64.6 µM (inactive) | GI50 (LOX IMVI): > 100 µM (inactive) | GI50 (NCI-H460): 7.11 µM (inactive) | GI50 (DMS-273): 26.5 µM (inactive) | GI50 (HOP-62): 4.71 µM (inactive) | GI50 (DLD-1): < 0.01 µM (active) | GI50 (OVCAR-3): 55.8 µM (inactive) | GI50 (NCI-H23): 64 µM (inactive) | GI50 (SF-539): 2.75 µM (inactive) | GI50 (RXF 393): 16 µM (inactive) | GI50 (M14): > 100 µM (inactive) | GI50 (SK-MEL-5): 2.79 µM (inactive) | GI50 (MOLT-4): > 100 µM (inactive) | GI50 (MDA-MB-231): 29.6 µM (inactive) | GI50 (A498): 5.81 µM (inactive) | GI50 (SNB-19): 48.9 µM (inactive) | GI50 (COLO 205): > 100 µM (inactive) | GI50 (UO-31): > 72.1 µM (inactive) | GI50 (NCI/ADR-RES): 49.3 µM (inactive) | GI50 (ACHN): 51.3 µM (inactive) | GI50 (T47D): 68.4 µM (inactive) | GI50 (BT-549): 39.8 µM (inactive) | GI50 (MDA-N): > 100 µM (inactive) | GI50 (SW-620): > 100 µM (inactive) | GI50 (LXFL 529): 83.8 µM (inactive) | GI50 (U-251): 57.7 µM (inactive) | GI50 (HOP-18): > 100 µM (inactive) | GI50 (TK-10): 8.65 µM (inactive)

O=C1Nc2ccccc2SC1=C(C(=O)c1ccccc1)C(=O)c1ccccc1
GI50 (SNB-75): 51.5 µM (inactive) | GI50 (HCC 2998): 22.2 µM (inactive) | GI50 (IGROV-1): 42.3 µM (inactive) | GI50 (PC-3): 26.3 µM (inactive) | GI50 (HCT-15): 37.5 µM | GI50 (MCF7): 34.9 µM (inactive) | GI50 (SK-OV-3): 16 µM (inactive) | GI50 (K562): 4.06 µM (inactive) | GI50 (OVCAR-4): 43.2 µM (inactive) | GI50 (RPMI-8226): 28.8 µM (inactive) | GI50 (MDA-MB-435): 21.8 µM (inactive) | GI50 (Hs-578T): 31.6 µM (inactive) | GI50 (SF-268): 32.1 µM (inactive) | GI50 (EKVX): 34.8 µM (inactive) | GI50 (HT-29): 32.4 µM (inactive) | GI50 (HOP-92): 38.1 µM (inactive) | GI50 (A549): 36.6 µM (inactive) | GI50 (SR): 17.7 µM (inactive) | GI50 (SK-MEL-2): 24.8 µM (inactive) | GI50 (SF-295): 17.1 µM (inactive) | GI50 (CCRF-CEM): 4.17 µM (inactive) | GI50 (DU-145): 38.1 µM (inactive) | GI50 (HCT-116): 29.5 µM (inactive) | GI50 (Malme-3M): > 85.7 µM (inactive) | GI50 (SN12C): 24 µM (inactive) | GI50 (SK-MEL-28): 55.6 µM (inactive) | GI50 (NCI-H522): 20.4 µM (inactive) | GI50 (786-0): 43.7 µM (inactive) | GI50 (OVCAR-5): 27.8 µM (inactive) | GI50 (UACC-62): 20.7 µM (inactive) | GI50 (OVCAR-8): 52.4 µM (inactive) | GI50 (KM12): 34 µM (inactive) | GI50 (HL-60): 0.091 µM (active) | GI50 (NCI-H226): 45.8 µM (inactive) | GI50 (UACC-257): 33.3 µM (inactive) | GI50 (CAKI-1): 60.4 µM (inactive) | GI50 (LOX IMVI): 31.3 µM (inactive) | GI50 (NCI-H460): 28.1 µM (inactive) | GI50 (HOP-62): 46.7 µM (inactive) | GI50 (OVCAR-3): 12.3 µM (inactive) | GI50 (NCI-H23): 29.7 µM (inactive) | GI50 (SF-539): 39.6 µM (inactive) | GI50 (RXF 393): 55 µM (inactive) | GI50 (M14): 28.3 µM (inactive) | GI50 (SK-MEL-5): 32.9 µM (inactive) | GI50 (MOLT-4): 1.04 µM (active) | GI50 (MDA-MB-231): 27.1 µM (inactive) | GI50 (A498): 32.4 µM (inactive) | GI50 (SNB-19): 41.2 µM (inactive) | GI50 (COLO 205): 29.2 µM (inactive) | GI50 (UO-31): 53.3 µM (inactive) | GI50 (NCI/ADR-RES): 40.1 µM (inactive) | GI50 (ACHN): 42.1 µM (inactive) | GI50 (T47D): 53 µM (inactive) | GI50 (BT-549): 30.5 µM (inactive) | GI50 (MDA-N): 19.7 µM (inactive) | GI50 (SW-620): 34.6 µM (inactive) | GI50 (U-251): 33.2 µM (inactive) | GI50 (TK-10): 63.4 µM (inactive)
